What all share (format): in vivo
The subject of one test is Culex pipiens pallens. Put plainly: Test Example 5: larvae in treated water, Culex pipiens pallens. The following applies: 24 h, read-out: rate of dead pests. Here is the method: The formulation obtained according to Formulation Example 5 using the compound of the present invention (1), (2), (3), (4), (5), (6), (7), (8), (9), (10), (11), (12), (13), (14), (15), (16), (17), (18), (19), (20), (21), (22), (23), (25), (27), (28), (29), […], (31), (32), (33), (34), (35), (36), (37), (38), (39), (41), (44), (45), (46), (47) and (48) respectively, was diluted with water so that the active ingredient concentration came to 500 ppm to prepare a pesticidal solution for test.
0.7 ml of above pesticidal solution for test was added to 100 ml of ion exchanged water (active ingredient concentration: 3.5 ppm). Twenty last-instar larvae of Culex pipiens pallens were set free in the solution. After one day, the number of surviving and dead Culex pipiens pallens was examined and the rate of dead pests was calculated.

A further test concerns Musca domestica. Kind of test: Test Example 3: treated filter paper with sucrose bait, Musca domestica. The following applies: read-out: rate of dead pests. The protocol: The formulation obtained according to Formulation Example 5 using the compound of the present invention (2), (3), (4), (6), (7), (8), (11), (12), (13), (15), (16), (19), (20), (21), (22), (28), (29), (30), (31), (32), (33), (34), (36), (37), (38) and (39) respectively, was diluted with water so that the active ingredient concentration came to 500 ppm to prepare a pesticidal solution for test.
On the bottom of a polyethylene cup having a diameter of 5.5 cm, a filter paper having the same diameter was laid, and 0.7 ml of the above pesticidal solution for test was added dropwise on the filter paper, followed by putting 30 mg of sucrose on it uniformly as a bait. Ten female Musca domestica imagoes were set free in the polyethylene cup and covered it with a lid. After 24 hours, the number of surviving and dead Musca domestica was examined and the rate of dead pests was calculated.

For another test, the system named is Blattella germanica. Put plainly: Test Example 4: treated filter paper with sucrose bait, Blattella germanica. The note with it: 144 h, read-out: rate of dead pests. Here is the method: The formulation obtained according to Formulation Example 5 using the compound of the present invention (2), (3), (4), (6), (7), (8), (9), (11), (12), (13), (15), (16), (18), (19), (20), (21), (22), (27), (28), (29), (30), (31), (32), (33), (34), (35), (36), (37), (38), (43) and […] respectively, was diluted with water so that the active ingredient concentration came to 500 ppm to prepare a pesticidal solution for test.
On the bottom of a polyethylene cup having a diameter of 5.5 cm, a filter paper having the same diameter was laid, and 0.7 ml of the above pesticidal solution for test was added dropwise on the filter paper, followed by putting 30 mg of sucrose on it uniformly as a bait. Two male Blattella germanica imagoes were set free in the polyethylene cup and covered it with a lid. After 6 days, the number of surviving and dead Blattella germanica was examined and the rate of dead pests was calculated.

Where [1] appears, read: active ingredient concentration 3.5 ppm in water, twenty last-instar larvae of Culex pipiens pallens, after one day.
Where [2] appears, read: 500 ppm, 0.7 ml on filter paper, ten female Musca domestica imagoes, after 24 hours.
[3] abbreviates: 500 ppm, 0.7 ml on filter paper, two male Blattella germanica imagoes, after 6 days.

Read-outs that look alike come from different tables or passages of the source.

For 25 molecules, pest or weed control results are on record in US7541374B2, “Malononitrile compounds and use thereof” (Sumitomo Chemical Company, Limited, priority 2004, dated 2009).

On to `N#CC(C#N)(CCC(F)(F)F)Cn1cccn1` [compound of the present invention (1), (1H-pyrazole-1-yl methyl) (3,3,3-trifluoropropyl) malononitrile], for which the pest or weed control at 3.5 ppm with Culex pipiens pallens (setting [1]) is not below 95%.

As to `CC(C)c1ccn(CC(C#N)(C#N)CCC(F)(F)F)n1` [compound of the present invention (2), [(3-i-propyl-1H-pyrazole-1-yl)methyl](3,3,3-trifluoropropyl) malononitrile], the values for the pest or weed control at 500 ppm in the test on Musca domestica (setting [2]) and in the test on Blattella germanica (setting [3]) were not below 90% and 100%, respectively. The pest or weed control at 3.5 ppm with Culex pipiens pallens (setting [1]) was not below 95%.

Turning to `CC(C)(C)c1ccn(CC(C#N)(C#N)CCC(F)(F)F)n1` [compound of the present invention (3), [(3-t-butyl-1H-pyrazole-1-yl)methyl](3,3,3-trifluoropropyl) malononitrile], the pest or weed control at 500 ppm with Musca domestica (setting [2]) is not below 90%; in the test on Blattella germanica (setting [3]), 100%. Moreover, the pest or weed control at 3.5 ppm in the test on Culex pipiens pallens (setting [1]) is not below 95%.

Regarding `C=CCC(C#N)(C#N)Cn1ccc(C(C)(C)C)n1` [compound of the present invention (4), allyl [(3-t-butyl-1H-pyrazole-1-yl)methyl]malononitrile], the figures for the pest or weed control at 500 ppm in the test on Musca domestica (setting [2]) and in the test with Blattella germanica (setting [3]) were not below 90% and 100%, respectively. Also, the pest or weed control at 3.5 ppm with Culex pipiens pallens (setting [1]) is not below 95%.

Turning to `CC1(C)CCc2cn(CC(C#N)(C#N)CCC(F)(F)F)nc21` [compound of the present invention (5), [(6,6-dimethyl-5,6-dihydro-cyclopenta[c]pyrazole-2(4H)-yl)methyl](3,3,3-trifluoropropyl) malononitrile], the pest or weed control at 3.5 ppm in the test with Culex pipiens pallens (setting [1]) was not below 95%.

As for `N#CC(C#N)(CCC(F)(F)F)Cn1ccc(C(F)(F)F)n1` [compound of the present invention (6), {[3-(trifluoromethyl)-1H-pyrazole-1-yl]methyl}(3,3,3-trifluoropropyl) malononitrile], the pest or weed control at 500 ppm was not below 90% with Musca domestica (setting [2]) and 100% with Blattella germanica (setting [3]). For the same molecule, the pest or weed control at 3.5 ppm in the test on Culex pipiens pallens (setting [1]) is not below 95%.

Consider `C=CCC(C#N)(C#N)Cn1ccc(C(F)(F)F)n1` [compound of the present invention (7), allyl {[3-(trifluoromethyl)-1H-pyrazole-1-yl]methyl}malononitrile], for which the pest or weed control at 500 ppm with Musca domestica (setting [2]) is not below 90%; with Blattella germanica (setting [3]) it was 100%. Further, in the test with Culex pipiens pallens (setting [1]), the pest or weed control at 3.5 ppm is not below 95%.

Take `N#CC(C#N)(CCC(F)(F)F)Cn1ccc(C=O)n1` [compound of the present invention (8), [(3-formyl-1H-pyrazole-1-yl)methyl](3,3,3-trifluoropropyl) malononitrile]: the pest or weed control at 500 ppm with Musca domestica (Musca domestica, 24 h) was not below 90%; in the test on Blattella germanica (Blattella germanica), 100%. For the same molecule, in the test with Culex pipiens pallens (Culex pipiens), the pest or weed control at 3.5 ppm is not below 95%.

Take `N#Cc1ccn(CC(C#N)(C#N)CCC(F)(F)F)n1` [compound of the present invention (9), [(3-cyano-1H-pyrazole-1-yl)methyl](3,3,3-trifluoropropyl) malononitrile]: the pest or weed control at 500 ppm with Blattella germanica (setting [3]) was found to be 100%. Further, the pest or weed control at 3.5 ppm in the test with Culex pipiens pallens (setting [1]) is not below 95%.

Take `N#CC(C#N)(CCC(F)(F)F)Cn1ccc(-c2ccccc2)n1` [compound of the present invention (10), [(3-phenyl-1H-pyrazole-1-yl)methyl](3,3,3-trifluoropropyl)malononitrile]: in the test with Culex pipiens pallens (setting [1]), the pest or weed control at 3.5 ppm is not below 95%.

Consider `C=CCC(C#N)(C#N)Cn1cc(Br)c(C(C)(C)C)n1` [compound of the present invention (14), allyl [(4-bromo-3-t-butyl-1H-pyrazole-1-yl)methyl]malononitrile], for which the pest or weed control at 3.5 ppm in the test on Culex pipiens pallens (setting [1]) was not below 95%.

On to `Cc1cc(C)n(CC(C#N)(C#N)CCC(F)(F)F)n1` [compound of the present invention (17)], for which the pest or weed control at 3.5 ppm with Culex pipiens pallens (setting [1]) was not below 95%.

As for `Cc1cnn(CC(C#N)(C#N)CCC(F)(F)F)c1` [compound of the present invention (18)], in the test with Blattella germanica (setting [3]), the pest or weed control at 500 ppm came to 100%. Also, the pest or weed control at 3.5 ppm with Culex pipiens pallens (setting [1]) was not below 95%.

Take `COC(=O)c1cnn(CC(C#N)(C#N)CCC(F)(F)F)c1` [compound of the present invention (23), [{4-(methoxycarbonyl)-1H-pyrazole-1-yl}methyl](3,3,3-trifluoropropyl) malononitrile]: the pest or weed control at 3.5 ppm in the test on Culex pipiens pallens (setting [1]) was not below 95%.

As for `CCOC(=O)c1cn(CC(C#N)(C#N)CCC(F)(F)F)nc1C(F)(F)F` [compound of the present invention (25), {[4-ethoxycarbonyl-3-(trifluoromethyl)-pyrazole-1H-yl]methyl}(3,3,3-trifluoropropyl) malononitrile], in the test on Culex pipiens pallens (setting [1]), the pest or weed control at 3.5 ppm was not below 95%.

As for `N#CC(C#N)(CCC(F)(F)F)Cn1cncn1` [compound of the present invention (27), [(1H-1,2,4-triazole-1-yl)methyl](3,3,3-trifluoropropyl) malononitrile], the pest or weed control at 500 ppm in the test on Blattella germanica (setting [3]) was found to be 100%. In the test with Culex pipiens pallens (setting [1]), the pest or weed control at 3.5 ppm was not below 95%.

Take `CCC(C)(C)c1ncn(CC(C#N)(C#N)CCC(F)(F)F)n1` [compound of the present invention (30), {[3-(1,1-dimethylpropyl)-1H-1,2,4-triazole-1-yl]methyl}(3,3,3-trifluoropropyl) malononitrile]: the pest or weed control at 500 ppm in the test on Musca domestica (setting [2]) was not below 90%; in the test with Blattella germanica (setting [3]), 100%.

`C=CCC(C#N)(C#N)Cn1cnc(C(F)(F)C(F)(F)F)n1` [compound of the present invention (35), allyl {[3-(pentafluoroethyl)-1H-1,2,4-triazole 1-yl]methyl}malononitrile]: the pest or weed control at 500 ppm in the test with Blattella germanica (setting [3]) came to 100%. Moreover, the pest or weed control at 3.5 ppm in the test with Culex pipiens pallens (setting [1]) is not below 95%.

As for `N#Cc1cn(CC(C#N)(C#N)CCC(F)(F)F)c2ccccc12` [compound of the present invention (39), [{3-cyano-1H-indole-1-yl}methyl] (3,3,3-trifluoropropyl) malononitrile], the pest or weed control at 500 ppm in the test with Musca domestica (setting [2]) was not below 90%. Moreover, in the test with Culex pipiens pallens (setting [1]), the pest or weed control at 3.5 ppm is not below 95%.

With `N#CC(C#N)(CCC(F)(F)F)Cn1cc(C(=O)C(F)(F)F)c2ccccc21` [compound of the present invention (41), [{3-(trifluoroacetyl)-1H-indole-1-yl}methyl](3,3,3-trifluoropropyl) malononitrile], the pest or weed control at 3.5 ppm with Culex pipiens pallens (Culex pipiens) is not below 95%.

On to `N#CC(C#N)(CCC(F)(F)F)Cn1cc(SC(F)(Cl)Cl)cn1` [compound of the present invention (43), [(4-{(dichlorofluoromethyl)thio}-1H-pyrazole-1-yl)methyl](3,3,3-trifluoropropyl)malononitrile], for which the pest or weed control at 500 ppm in the test on Blattella germanica (setting [3]) amounted to 100%.

Regarding `N#CC(C#N)(CCC(F)(F)F)Cn1cc(SC(F)(Cl)Cl)c2ccccc21` [compound of the present invention (44), [(3-{[dichlorofluoromethyl]thio}-1H-indole-1-yl)methyl](3,3,3-trifluoropropyl) malononitrile], the pest or weed control at 3.5 ppm with Culex pipiens pallens (setting [1]) is not below 95%.

On to `N#Cc1cn(CC(C#N)(C#N)CCC(F)(F)F)cc1C(F)(F)F` [compound of the present invention (46), [(3-cyano-4-trifluoromethyl-1H-pyrole-1-yl)methyl](3,3,3-trifluoropropyl) malononitrile], for which the pest or weed control at 3.5 ppm in the test with Culex pipiens pallens (setting [1]) was not below 95%.

`CCOC(=O)c1cn(CC(C#N)(C#N)CCC(F)(F)F)cc1C(F)(F)F` [compound of the present invention (47), [(3-ethoxycarbonyl-4-trifluoromethyl-1H-pyrole-1-yl)methyl](3,3,3-trifluoropropyl)malononitrile]: the pest or weed control at 3.5 ppm in the test with Culex pipiens pallens (setting [1]) was not below 95%.

For the molecule `N#Cc1ccn(CC(C#N)(C#N)CCC(F)(F)F)c1` [compound of the present invention (48), [(3-cyano-1H-pyrole-1-yl)methyl] (3,3,3-trifluoropropyl) malononitrile], in the test on Culex pipiens pallens (setting [1]), the pest or weed control at 3.5 ppm is not below 95%.
